± gives the expanded uncertainty stated by the source.
Conditions: Crystal

C1CSCCS1 [1,4-dithiacyclohexane]
vapor or sublimation pressure [kPa]
Conditions | 296.65 K | 355.75 K | 359.45 K | 362.35 K | 367.35 K | 370.65 K | 374.05 K | 374.25 K | 376.95 K
Rate of evaporation | – | 1.067 ± 0.51 | 1.333 ± 0.68 | 1.893 ± 0.58 | 2.653 ± 0.71 | 3.246 ± 0.81 | 3.826 ± 0.8 | 3.906 ± 0.82 | 4.626 ± 0.99
Transpiration method | 0.00918 ± 0.00046 | – | – | – | – | – | – | – | –

From the NIST ThermoML archive (doi:10.1021/je800586u)
